Measurements published in patent publication US20220146526A1, “METHOD FOR EVALUATING SAMPLE, ANALYSIS METHOD, METHOD FOR DETECTING DEGRADED SAMPLE, MARKER FOR DETECTING DEGRADED BLOOD PLASMA SAMPLE, AND MARKER FOR DETECTING DEGRADED SERUM SAMPLE” (SHIMADZU CORPORATION, priority 2019, published 2022).

Legend:
Assay type in all cases: physicochemical, human
[1] = LC/MS of blood plasma sample: time from blood collection to centrifugation (Table D); details: for Increase or decrease: detection intensity; for Increase or decrease / Rate of increase or decrease: blood collection to centrifugation; for Rate of increase or decrease: detection intensity relative to 1 at 15 minutes
Summary of the method: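 Detection intensities are expressed relative to samples centrifuged 15 min after collection (=1), measured by electrospray LC/MS in MRM mode (Discovery HS F5-3, 40 °C, formic acid water/acetonitrile gradient at 0.25 mL/min). EDTA blood from a healthy donor was held at 4 °C, centrifuged at 4 °C, 3000 rpm, 15 min, and plasma frozen.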

[2] = LC/MS of blood plasma sample: time from blood collection to cooling of blood (Table E); parameters: key to Rate of increase or decrease / Rate of increase or decrease (first value, increase): detection intensity relative to ≤1 min to cooling = 1
Method: At room temperature, 5 mL of blood from a healthy subject was taken into a blood-collecting vessel containing EDTA, and the blood-collecting vessel was inverted for mixing, then cooled, and allowed to stand at 4° C. Here, in order to investigate how the detection intensity of molecules contained in the sample was affected in a case where the time to cooling was set to 5 minutes or more as compared to that in a case where the time to cooling was set to 1 minute or less, preparations were performed under both the former condition and the latter condition. After standing, the blood sample was subjected to centrifugation under a condition of 4° C., 3000 rpm, and 15 minutes. […] After centrifugation, the blood-collecting vessel was left to stand at room temperature for 30 minutes, and the blood plasma was isolated during this 30 minutes. The obtained blood plasma sample was frozen and stored. Here, in order to investigate how the detection intensity of molecules contained in the sample was affected in cases where freezing and thawing was performed 4 times, 6 times, and 10 times after freezing as compared to that in a case where freezing and thawing was performed 2 times after freezing, freezing and thawing was performed under the respective conditions of 2, 4, 6, and 10 times.
(§1) Frozen blood plasma samples and serum samples were subjected to GC/MS or LC/MS. In GC/MS, the blood plasma samples and serum samples were subjected to methoxymation and trimethylsilylation and then introduced to GC-MS.
(§2) Analysis column: Discovery HS F5-3 (inner diameter of 2.1 mm, length of 150 mm, film thickness of 3 μm) (Sigma-Aldrich)
(§3) Column temperature: 40° C.
(§4) (A) 0.1% formic acid (dissolved in water)
(§5) (B) 0.1% formic acid (dissolved in acetonitrile)
(§6) Flow velocity: 0.25 mL/min
(§7) Ionization method: electrospray
(§8) Temperature: • Desolvation Line (DL) temperature: 250° C. • Heat block temperature: 400° C. • Interface temperature: 300° C.
(§9) Gas flow rate: • Nebulizer gas flow rate: 3.0 L/min • Drying gas flow rate: 10.0 L/min • Heating gas flow rate: 10.0 L/min
(§10) Mode: multiple reaction monitoring (MRM)
The rate of increase or decrease in Table E is the value of detection intensity relative to 1 that is the detection intensity in a case where the time from blood collection to cooling is set to 1 minute or less.

[3] = LC/MS of serum sample: number of times of freezing and thawing (Table M); parameters: key to Rate of increase or decrease: detection intensity relative to 1 at 2 freeze-thaw cycles; details: for Number of times when compound is affected / Increase or decrease: serum sample, LC/MS; for Number of times when compound is affected: detection intensity changed by 30% or more vs 2 times of freezing and thawing; for Increase or decrease: detection intensity vs 2 times of freezing and thawing
Summary of the method: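 Values are detection intensities relative to serum thawed twice, versus 4, 6 or 10 freeze-thaw cycles. Serum came from blood spun at room temperature, 3500 rpm for 5 minutes. Analysis: electrospray LC/MS in MRM mode, Discovery HS F5-3 column, 40° C, 0.1% formic acid in water and acetonitrile.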

[4] = GC/MS of blood plasma sample: time from blood collection to centrifugation (Table A); details: blood collection to centrifugation
Summary of the method: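 Read-out is MRM detection intensity by electron-ionization GC/MS on a BPX5 column after methoxymation and trimethylsilylation, expressed relative to a 15-minute collection-to-centrifugation interval. Plasma was prepared from EDTA blood held at 4° C and spun at 4° C, 3000 rpm for 15 minutes, then frozen.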

[5] = LC/MS of blood plasma sample: number of times of freezing and thawing (Table F); details: for Rate of increase or decrease: detection intensity relative to 1 at 2 times, freezing and thawing 4 times; for Increase or decrease: detection intensity, freezing and thawing 4 times vs 2 times
Summary of the method: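 Values are detection intensities normalised to 1 for plasma thawed twice, compared against 4, 6 and 10 freeze-thaw cycles. Measured by electrospray LC/MS in MRM mode, formic acid water/acetonitrile mobile phase, column at 40° C. Plasma came from EDTA blood, cooled to 4° C and spun at 3000 rpm for 15 min.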

[6] = LC/MS of serum sample: time from blood collection to centrifugation (Table J); details: for Rate of increase or decrease: detection intensity relative to 1 at 15 minutes; for Increase or decrease / Time when compound is affected: serum sample, LC/MS; for Increase or decrease: detection intensity vs 15 minutes from blood collection to centrifugation; for Time when compound is affected: time from blood collection to centrifugation, detection intensity changed by 30% or more vs 15 minutes
Summary of the method: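 Detection intensities are expressed relative to 1 for samples centrifuged 15 min after blood collection; centrifugation was at room temperature, 3500 rpm, 5 min. Frozen serum was run by electrospray LC-MS in MRM mode, with 0.1% formic acid water/acetonitrile at 0.25 mL/min on a 40 °C F5 column.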

[7] = LC/MS of serum sample: time from centrifugation to isolation (Table K); parameters: key to Rate of increase or decrease: detection intensity relative to the 30-minute value set as 1; details: for Increase or decrease / Time when compound is affected: serum sample, LC/MS; for Increase or decrease: detection intensity vs 30 minutes from centrifugation to isolation; for Time when compound is affected: time from centrifugation to isolation, detection intensity changed by 30% or more vs 30 minutes
Method: After standing, the blood sample was subjected to centrifugation under a condition of room temperature, 3500 rpm, and 5 minutes. […] After centrifugation, the blood-collecting vessel was left to stand at room temperature, and the serum was isolated during this time. Here, in order to investigate how the detection intensity of molecules contained in the sample was affected in cases where the time during which the blood-collecting vessel was left at room temperature was set to 1 hour and 6 hours as compared to that in a case where the time was set to 30 minutes, preparations were performed under the respective conditions of 30 minutes, 1 hour, and 6 hours. The obtained serum sample was frozen and stored. Here, in order to investigate how the detection intensity of molecules contained in the sample was affected in cases where freezing and thawing was performed 4 times, 6 times, and 10 times after freezing as compared to that in a case where freezing and thawing was performed 2 times after freezing, freezing and thawing was performed under the respective conditions of 2, 4, 6, and 10 times.
as §1, §2, §3, §4, §5, §6, §7, §8, §9, §10
The rate of increase or decrease in Table K is the value of detection intensity relative to 1 that is the detection intensity in a case where the time from centrifugation to isolation is set to 30 minutes.

SMILES | Increase or decrease ([1]; after 12 hours vs 15 minutes) | Number of times when compound is affected [3] | Increase or decrease [3] | Rate of increase or decrease [5] | Increase or decrease [5] | Increase or decrease [6] | Time when compound is affected [6] | Increase or decrease [7] | Time when compound is affected [7] | other results
CN(C)C(N)=NCCC[C@H](N)C(=O)O [Asymmetric dimethylarginine] | Different from individual | 6 times | Decrease |  |  |  |  |  |  | Rate of increase or decrease (second value, decrease) ([1]; different from individual to individual, individuals with decrease, relative to 1 at 15 minutes, collection to centrifugation, after 12 hours): 0.66; Rate of increase or decrease (first value, increase) ([1]; different from individual to individual, individuals with increase, relative to 1 at 15 minutes, collection to centrifugation, after 12 hours): 1.78; Rate of increase or decrease ([2]; detection intensity relative to 1 at 1 minute or less, blood collection to cooling 5 minutes): 1.31; Increase or decrease ([2]; detection intensity, blood collection to cooling 5 minutes or more vs 1 minute or less): Increase; Rate of increase or decrease ([3]; 6 times of freezing and thawing, detection intensity relative to 1 at 2 times): 0.69
O=C(O)CC(O)C(=O)O (stereo not drawn) [Malic acid] |  | 10 times | Decrease | 2.37 | Increase | Increase | After 4 hours | Increase | After 1 hour hours | Rate of increase or decrease ([4]; detection intensity relative to 1 at 15 minutes, after 12 hours): 1.36; Increase or decrease ([4]; detection intensity, after 12 hours vs 15 minutes): Increase; Rate of increase or decrease ([1]; after 6 hours): 0.58; Increase or decrease ([1]; after 6 hours vs 15 minutes): Decrease; Rate of increase or decrease ([6]; after 4 hours from blood collection to centrifugation): 1.33; Rate of increase or decrease ([7]; after 1 hour from centrifugation to isolation, detection intensity relative to 1 at 30 minutes): 1.38; Rate of increase or decrease ([3]; 10 times of freezing and thawing, detection intensity relative to 1 at 2 times): 0.64
N=C(N)NCCC[C@H](NC(CC(=O)O)C(=O)O)C(=O)O (stereo partly drawn) [Argininosuccinic acid] | Decrease | 6 times | Different from individual | 2.01 | Increase | Decrease | After 6 hours | Increase | After 1 hour hours | Rate of increase or decrease ([1]; after 12 hours): 0.61; Rate of increase or decrease ([6]; after 6 hours from blood collection to centrifugation): 0.65; Rate of increase or decrease ([3]; 6 times of freezing and thawing, relative to 1 at 2 times, different from individual to individual, first value (increase)): 1.38; Rate of increase or decrease ([3]; 6 times of freezing and thawing, relative to 1 at 2 times, different from individual to individual, second value (decrease)): 0.49
